Test results reported in ChEMBL document CHEMBL1201862, “PubChem BioAssay data set” (2004).
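These data come from cells grown in 96-well plates and exposed to compound for 48 hours at five concentrations. At the GI50, growth is halved.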 The source made the active and inactive calls. Rule as the data show it: active = GI50 up to about 1.1 µM and inactive = higher.

What was measured:
Test in all cases: NCI-60 cell line screen, 48 h
KM12 = system: KM12
UO-31 = system: UO-31
COLO 205 = system: COLO 205
HL-60 = system: HL-60
SK-MEL-28 = system: SK-MEL-28
OVCAR-3 = system: OVCAR-3
CAKI-1 = system: CAKI-1
NCI-H226 = system: NCI-H226
HOP-62 = system: HOP-62
SF-539 = system: SF-539
NCI-H460 = system: NCI-H460
RXF 393 = system: RXF 393
A498 = system: A498
HCC 2998 = system: HCC 2998
SR = system: SR

Structure (SMILES) | GI50 (KM12) | GI50 (UO-31) | GI50 (COLO 205) | GI50 (HL-60) | GI50 (SK-MEL-28) | GI50 (OVCAR-3) | GI50 (CAKI-1) | GI50 (NCI-H226) | GI50 (HOP-62) | GI50 (SF-539) | GI50 (NCI-H460) | GI50 (RXF 393) | GI50 (A498) | GI50 (HCC 2998) | GI50 (SR)
O=C(CCn1[nH]c(=O)c(Cl)c(Cl)c1=O)NNC(=O)C[n+]1ccccc1 | > 100 µM (inactive) | > 100 µM (inactive) | > 100 µM (inactive) | > 100 µM (inactive) | > 100 µM (inactive) | > 100 µM (inactive) | > 100 µM (inactive) | > 100 µM (inactive) | > 100 µM (inactive) | > 100 µM (inactive) | > 100 µM (inactive) | > 100 µM (inactive) | > 100 µM (inactive) | > 100 µM (inactive) | 
CC(C)(C)c1ccc2c(c1)S(=O)(=O)Nc1ccc(Cl)cc1NS(=O)(=O)c1cc(C(C)(C)C)ccc1OCCOCCOCCO2 | 75 µM (inactive) | 53.5 µM (inactive) | > 100 µM (inactive) | > 100 µM (inactive) | > 100 µM (inactive) | 50.6 µM (inactive) | 98.2 µM (inactive) | 57.9 µM (inactive) | 32.3 µM (inactive) | 23.5 µM (inactive) | 26 µM (inactive) | 19.8 µM (inactive) | > 100 µM (inactive) | > 100 µM (inactive) | 
Cc1nnc(N/N=C(/C(=O)C(C#N)c2ccccc2)C(C#N)c2ccccc2)n1N (centres undefined) | 28.4 µM (inactive) | 26.4 µM (inactive) | 4.76 µM (inactive) | 17.9 µM (inactive) | 20 µM (inactive) | 20 µM (inactive) | 32.1 µM (inactive) | 28.8 µM (inactive) | 50.7 µM (inactive) | > 48.6 µM (inactive) | 1.01 µM (active) | 17 µM (inactive) | 7.98 µM (inactive) | 4.85 µM (inactive) | 32.3 µM (inactive)
O=C(CC1(O)C(=O)Nc2ccccc21)c1ccc(F)cc1 (centres undefined) |  | > 100 µM (inactive) | > 100 µM (inactive) | > 100 µM (inactive) | > 100 µM (inactive) | > 100 µM (inactive) | > 100 µM (inactive) | > 100 µM (inactive) |  | > 100 µM (inactive) | > 100 µM (inactive) | > 100 µM (inactive) | > 100 µM (inactive) |  | 
O=[N+]([O-])c1cc([N+](=O)[O-])c(C(Cl)C(Cl)c2ccccc2)cc1C(Cl)C(Cl)c1ccccc1 (centres undefined) | 1.85 µM (inactive) | 1.51 µM (inactive) | 1.73 µM (inactive) | 7.29 µM (inactive) | 1.9 µM (inactive) | 2.2 µM (inactive) | 1.71 µM (inactive) | 2.23 µM (inactive) | 3.66 µM (inactive) | 1.8 µM (inactive) | 2.02 µM (inactive) | 1.33 µM (inactive) | 1.82 µM (inactive) | 1.76 µM (inactive) | 3.18 µM (inactive)
Cn1nc(-c2ccccc2)c(C(=O)/C=C/c2ccc(F)cc2)c(N2CCCCC2)c1=O |  | 5.58 µM (inactive) | 4.12 µM (inactive) | 0.759 µM (active) | 3.79 µM (inactive) |  | 8.75 µM (inactive) |  |  | 4.54 µM (inactive) | 4.83 µM (inactive) | 2.53 µM (inactive) |  |  | 
CN(C)/C(F)=P\C(F)(F)F (centres undefined) | > 100 µM (inactive) | > 100 µM (inactive) | > 100 µM (inactive) | > 100 µM (inactive) | > 100 µM (inactive) |  | > 100 µM (inactive) | > 100 µM (inactive) | > 100 µM (inactive) | > 100 µM (inactive) | > 100 µM (inactive) | > 100 µM (inactive) | > 100 µM (inactive) | > 100 µM (inactive) | 
CC(C)=CC(=O)Cc1nc2ccc([N+](=O)[O-])cc2[nH]c1=O |  | 63.1 µM (inactive) | > 100 µM (inactive) | 40.8 µM (inactive) | > 100 µM (inactive) | > 100 µM (inactive) | > 100 µM (inactive) | > 100 µM (inactive) | > 100 µM (inactive) | > 100 µM (inactive) | > 100 µM (inactive) | > 100 µM (inactive) | > 100 µM (inactive) |  | 
O=c1[nH]cc(C(F)(C(F)(F)F)C(F)(F)F)c(=O)[nH]1 | > 100 µM (inactive) | > 100 µM (inactive) | > 100 µM (inactive) | > 100 µM (inactive) | > 100 µM (inactive) | > 100 µM (inactive) | > 100 µM (inactive) | > 100 µM (inactive) | > 100 µM (inactive) | > 100 µM (inactive) | > 100 µM (inactive) | > 100 µM (inactive) | > 100 µM (inactive) |  | 
CCCCCCCCCCCCCCCC(=O)OCCOCCOCCOCCOCCOC(=O)CCCCCCCCCCCCCCC | > 100 µM (inactive) | > 100 µM (inactive) | > 100 µM (inactive) | > 100 µM (inactive) | > 100 µM (inactive) | > 100 µM (inactive) | > 100 µM (inactive) | > 100 µM (inactive) | > 100 µM (inactive) |  | > 100 µM (inactive) | > 100 µM (inactive) | > 100 µM (inactive) | > 100 µM (inactive) | > 100 µM (inactive)
